Measured values reported in the CheMixHub viscosity set.
Values joined by “and” are separate entries in the source; they are usually repeats but may differ in a detail not shown here. Identical values can stand only once.

Assay: xn = mol fraction of the nth substance listed

Nc1ccccc1 + C1CCCCC1
Settings | viscosity
301.05 K, 101.32 kPa, x1 = 0.7073 | 1.9 mPa·s
301.92 K, 101 kPa, x1 = 0.238 | 1.083 mPa·s
302.2 K, 101 kPa, x1 = 0.592 | 1.621 mPa·s
302.46 K, 101 kPa, x1 = 0.745 | 1.893 mPa·s
302.5 K, 101 kPa, x1 = 0.63 | 1.651 mPa·s
302.66 K, 101 kPa, x1 = 0.71 | 1.798 mPa·s
302.76 K, 101 kPa, x1 = 0.337 | 1.185 mPa·s
303 K, 101 kPa, x1 = 0.442 | 1.643 mPa·s and 1.611 mPa·s
303.02 K, 101 kPa, x1 = 0.442 | 1.57 mPa·s
303.08 K, 101 kPa, x1 = 0.39 | 1.305 mPa·s
303.09 K, 101 kPa, x1 = 0.442 | 1.539 mPa·s
303.12 K, 101 kPa, x1 = 0.592 | 1.574 mPa·s
303.15 K, 101 kPa, x1 = 0.442 | 1.496 mPa·s
303.15 K, 101.32 kPa, x1 = 0.7073 | 1.79 mPa·s
303.22 K, 101 kPa, x1 = 0.442 | 1.458 mPa·s
303.26 K, 101 kPa, x1 = 0.745 | 1.847 mPa·s
303.35 K, 101 kPa, x1 = 0.442 | 1.419 mPa·s
303.39 K, 101 kPa, x1 = 0.39 | 1.275 mPa·s
303.58 K, 101 kPa, x1 = 0.492 | 1.434 mPa·s
303.61 K, 101 kPa, x1 = 0.442 | 1.386 mPa·s
303.68 K, 101 kPa, x1 = 0.41 | 1.31 mPa·s
303.76 K, 101 kPa, x1 = 0.442 | 1.366 mPa·s
303.9 K, 101 kPa, x1 = 0.442 | 1.353 mPa·s
303.92 K, 101 kPa, x1 = 0.39 | 1.238 mPa·s
304.07 K, 101 kPa, x1 = 0.592 | 1.531 mPa·s
304.09 K, 101 kPa, x1 = 0.745 | 1.808 mPa·s
304.1 K, 101 kPa, x1 = 0.442 | 1.335 mPa·s
304.25 K, 101 kPa, x1 = 0.71 | 1.731 mPa·s
304.32 K, 101 kPa, x1 = 0.543 | 1.452 mPa·s
304.38 K, 101 kPa, x1 = 0.442 | 1.32 mPa·s
304.39 K, 101 kPa, x1 = 0.337 | 1.109 mPa·s
304.42 K, 101 kPa, x1 = 0.39 | 1.215 mPa·s
304.51 K, 101 kPa, x1 = 0.523 | 1.41 mPa·s
304.53 K, 101 kPa, x1 = 0.492 | 1.373 mPa·s
304.56 K, 101 kPa, x1 = 0.63 | 1.546 mPa·s
304.58 K, 101 kPa, x1 = 0.442 | 1.302 mPa·s
304.59 K, 101 kPa, x1 = 0.41 | 1.244 mPa·s
304.64 K, 101 kPa, x1 = 0.462 | 1.334 mPa·s
304.75 K, 101.32 kPa, x1 = 0.5628 | 1.51 mPa·s
304.99 K, 101 kPa, x1 = 0.442 | 1.281 mPa·s
305.01 K, 101 kPa, x1 = 0.745 | 1.77 mPa·s
305.05 K, 101.32 kPa, x1 = 0.5628 | 1.48 mPa·s
305.17 K, 101 kPa, x1 = 0.71 | 1.693 mPa·s
305.24 K, 101 kPa, x1 = 0.442 | 1.268 mPa·s
305.41 K, 101 kPa, x1 = 0.39 | 1.169 mPa·s
305.51 K, 101 kPa, x1 = 0.592 | 1.466 mPa·s
305.83 K, 101 kPa, x1 = 0.745 | 1.737 mPa·s
305.91 K, 101 kPa, x1 = 0.442 | 1.236 mPa·s
306.15 K, 101.32 kPa, x1 = 0.7073 | 1.65 mPa·s
306.28 K, 101 kPa, x1 = 0.337 | 1.051 mPa·s
306.33 K, 101 kPa, x1 = 0.462 | 1.247 mPa·s
306.36 K, 101 kPa, x1 = 0.442 | 1.216 mPa·s
306.36 K, 101 kPa, x1 = 0.492 | 1.292 mPa·s
306.37 K, 101 kPa, x1 = 0.543 | 1.363 mPa·s
306.39 K, 101 kPa, x1 = 0.63 | 1.481 mPa·s
306.5 K, 101 kPa, x1 = 0.523 | 1.328 mPa·s
306.54 K, 101 kPa, x1 = 0.41 | 1.163 mPa·s
306.88 K, 101 kPa, x1 = 0.71 | 1.624 mPa·s
307.09 K, 101 kPa, x1 = 0.745 | 1.683 mPa·s
307.11 K, 101 kPa, x1 = 0.442 | 1.192 mPa·s
307.79 K, 101 kPa, x1 = 0.592 | 1.39 mPa·s
307.84 K, 101 kPa, x1 = 0.442 | 1.159 mPa·s
308.04 K, 101 kPa, x1 = 0.492 | 1.235 mPa·s
308.08 K, 101 kPa, x1 = 0.745 | 1.642 mPa·s
308.26 K, 101 kPa, x1 = 0.41 | 1.103 mPa·s
308.28 K, 101 kPa, x1 = 0.39 | 1.07 mPa·s
308.35 K, 101 kPa, x1 = 0.337 | 0.993 mPa·s
308.35 K, 101 kPa, x1 = 0.462 | 1.172 mPa·s
308.36 K, 101 kPa, x1 = 0.543 | 1.292 mPa·s
308.41 K, 101 kPa, x1 = 0.63 | 1.409 mPa·s
308.43 K, 101 kPa, x1 = 0.523 | 1.261 mPa·s
309.04 K, 101 kPa, x1 = 0.745 | 1.609 mPa·s
309.11 K, 101 kPa, x1 = 0.442 | 1.122 mPa·s
309.15 K, 101.32 kPa, x1 = 0.7073 | 1.53 mPa·s
309.4 K, 101 kPa, x1 = 0.592 | 1.324 mPa·s
309.69 K, 101 kPa, x1 = 0.71 | 1.52 mPa·s
309.88 K, 101 kPa, x1 = 0.492 | 1.169 mPa·s
310.04 K, 101 kPa, x1 = 0.745 | 1.57 mPa·s
310.08 K, 101 kPa, x1 = 0.543 | 1.234 mPa·s
310.21 K, 101 kPa, x1 = 0.337 | 0.953 mPa·s
310.23 K, 101 kPa, x1 = 0.41 | 1.047 mPa·s
310.32 K, 101 kPa, x1 = 0.442 | 1.09 mPa·s
310.32 K, 101 kPa, x1 = 0.462 | 1.117 mPa·s
310.41 K, 101 kPa, x1 = 0.523 | 1.2 mPa·s
310.49 K, 101 kPa, x1 = 0.63 | 1.345 mPa·s
311.23 K, 101 kPa, x1 = 0.745 | 1.534 mPa·s
311.28 K, 101 kPa, x1 = 0.592 | 1.258 mPa·s
311.35 K, 101 kPa, x1 = 0.39 | 0.995 mPa·s
311.37 K, 101 kPa, x1 = 0.442 | 1.063 mPa·s
311.64 K, 101 kPa, x1 = 0.492 | 1.12 mPa·s
311.89 K, 101 kPa, x1 = 0.523 | 1.16 mPa·s
311.98 K, 101 kPa, x1 = 0.71 | 1.439 mPa·s
311.98 K, 101 kPa, x1 = 0.745 | 1.501 mPa·s
312.01 K, 101 kPa, x1 = 0.462 | 1.067 mPa·s
312.07 K, 101 kPa, x1 = 0.41 | 1.004 mPa·s
312.11 K, 101 kPa, x1 = 0.337 | 0.919 mPa·s
312.18 K, 101 kPa, x1 = 0.63 | 1.289 mPa·s
312.19 K, 101 kPa, x1 = 0.543 | 1.174 mPa·s
312.2 K, 101 kPa, x1 = 0.442 | 1.042 mPa·s

NCCN + CC(O)CO
viscosity [mPa·s], 101 kPa
Settings | 293.15 K | 298.15 K | 303.15 K | 308.15 K | 313.15 K | 318.15 K
x2 = 0.0399 | 1.85 | 1.64 | 1.48 | 1.33 | 1.2 | 1.08
x2 = 0.0807 | 2.29 | 2 | 1.82 | 1.62 | 1.43 | 1.29
x2 = 0.1223 | 2.72 | 2.49 | 2.23 | 1.95 | 1.81 | 1.54
x2 = 0.1649 | 3.73 | 3.14 | 2.84 | 2.47 | 2.21 | 1.89
x2 = 0.2084 | 4.73 | 4.04 | 3.54 | 3.02 | 2.63 | 2.28
x2 = 0.2529 | 6.26 | 5.27 | 4.5 | 3.9 | 3.33 | –
x2 = 0.2984 | 8.74 | 7.05 | 6 | 5.01 | 4.23 | –
x2 = 0.3449 | 11.9 | 9.4 | 7.92 | 6.61 | 5.49 | –
x2 = 0.3926 | 16.9 | 12.4 | 10.5 | 8.39 | 6.94 | –
x2 = 0.4413 | 22.8 | 16.9 | 13.6 | 10.7 | 8.8 | –
x2 = 0.4912 | 30.5 | 22.5 | 17.7 | 13.7 | 11 | –
x2 = 0.5423 | 39.6 | 28.8 | 22.7 | 17.2 | 13.6 | –
x2 = 0.5946 | 48.1 | 34.7 | 27.4 | 20.6 | 16.1 | –
x2 = 0.6483 | 55.8 | 41.5 | 31.7 | 23.6 | 18.5 | –
x2 = 0.7032 | 62.6 | 46.3 | 35.2 | 25.9 | 20.3 | –
x2 = 0.7596 | 66.6 | 49.7 | 37.8 | 27.6 | 21.6 | –
x2 = 0.8174 | 66.8 | 49.9 | 38.4 | 28.4 | 22.2 | –
x2 = 0.8767 | 64.5 | 48.8 | 37.4 | 27.4 | 22.1 | –
x2 = 0.9375 | 60.7 | 46.2 | 35.5 | 26.2 | 21.1 | –
